Laboratory results taken from the supplement of paper PMC4862054.

system: MDA-MB-453; test: normalised response (% of control), CellTox Green; higher = less cell death (100 = DMSO, 0 = benzethonium chloride kill control); conditions: incubation time: 72 h
In short: (§1)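 Every value is a normalised signal taken at one concentration of a dilution series. Compound was placed in 384-well plates at 5 concentrations in 10-fold steps over a compound-specific 10,000-fold range, and 20 µl of breast cancer cell suspension was seeded onto it. After 72 h, CellTox Green fluorescence (485/520 nm) was measured first and CellTiter-Glo luminescence second, following 10 min at room temperature. Each plate was scaled to 0.1 % DMSO (100) and a positive kill control (0).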

SMILES | normalised response
C=CC(=O)N1CCC[C@@H](n2nc(-c3ccc(Oc4ccccc4)cc3)c3c(N)ncnc32)C1 [Ibrutinib] (1000 nM) | 46.3%
O=C(O)CCCCC(CCSCc1ccccc1)SCc1ccccc1 (centres undefined) [CPI-613] (10000 nM) | 104%
CCc1cncnc1N1CCN(Cc2nc3ccc(C(F)(F)F)cc3[nH]2)CC1 (10000 nM) | 99.9%

system: BT-549; test: as above; conditions: incubation time: 72 h
In short: as §1

SMILES | normalised response
CCCCC(=O)OCC(=O)[C@]1(O)Cc2c(O)c3c(c(O)c2[C@@H](O[C@H]2C[C@H](NC(=O)C(F)(F)F)[C@H](O)[C@H](C)O2)C1)C(=O)c1c(OC)cccc1C3=O [Valrubicin] (5000 nM) | 208%
Cc1ccc(-c2cc(C(F)(F)F)nn2-c2ccc(S(N)(=O)=O)cc2)cc1 [Celecoxib] (10000 nM) | 113%
Oc1ncc(N(CCCl)CCCl)c(O)n1 [Uracil mustard] (10000 nM) | 94.2%
C=CCc1cccc(/C=N/NC(=O)CN2CCN(Cc3ccccc3)CC2)c1O [PAC-1] (10000 nM) | 2.94%
COc1cc2c(NC3CCN(C(C)C)CC3)nc(C3CCCCC3)nc2cc1OCCCN1CCCC1 [UNC0638] (10000 nM) | 17%
C=CC(=O)Nc1cc2c(Nc3ccc(F)c(Cl)c3)ncnc2cc1OCCCN1CCOCC1 [Canertinib] (10000 nM) | 55.1%
C=CC(=O)N1CCC[C@@H](n2nc(-c3ccc(Oc4ccccc4)cc3)c3c(N)ncnc32)C1 [Ibrutinib] (1000 nM) | 92.3%
O=C(O)CCCCC(CCSCc1ccccc1)SCc1ccccc1 (centres undefined) [CPI-613] (10000 nM) | 80.4%
CCc1cncnc1N1CCN(Cc2nc3ccc(C(F)(F)F)cc3[nH]2)CC1 (10000 nM) | 95.6%

system: MFM-223; test: as above; conditions: incubation time: 72 h
In short: as §1

SMILES | normalised response
CCCCC(=O)OCC(=O)[C@]1(O)Cc2c(O)c3c(c(O)c2[C@@H](O[C@H]2C[C@H](NC(=O)C(F)(F)F)[C@H](O)[C@H](C)O2)C1)C(=O)c1c(OC)cccc1C3=O [Valrubicin] (5000 nM) | 118%
Cc1ccc(-c2cc(C(F)(F)F)nn2-c2ccc(S(N)(=O)=O)cc2)cc1 [Celecoxib] (10000 nM) | 95.2%
Oc1ncc(N(CCCl)CCCl)c(O)n1 [Uracil mustard] (10000 nM) | 100%
C=CCc1cccc(/C=N/NC(=O)CN2CCN(Cc3ccccc3)CC2)c1O [PAC-1] (10000 nM) | 103%
COc1cc2c(NC3CCN(C(C)C)CC3)nc(C3CCCCC3)nc2cc1OCCCN1CCCC1 [UNC0638] (10000 nM) | 36.8%
C=CC(=O)Nc1cc2c(Nc3ccc(F)c(Cl)c3)ncnc2cc1OCCCN1CCOCC1 [Canertinib] (10000 nM) | 26.9%
C=CC(=O)N1CCC[C@@H](n2nc(-c3ccc(Oc4ccccc4)cc3)c3c(N)ncnc32)C1 [Ibrutinib] (1000 nM) | 100%
O=C(O)CCCCC(CCSCc1ccccc1)SCc1ccccc1 (centres undefined) [CPI-613] (10000 nM) | 97.6%
CCc1cncnc1N1CCN(Cc2nc3ccc(C(F)(F)F)cc3[nH]2)CC1 (10000 nM) | 103%

system: BT-474; test: as above; conditions: incubation time: 72 h
In short: as §1

SMILES | normalised response
CCCCC(=O)OCC(=O)[C@]1(O)Cc2c(O)c3c(c(O)c2[C@@H](O[C@H]2C[C@H](NC(=O)C(F)(F)F)[C@H](O)[C@H](C)O2)C1)C(=O)c1c(OC)cccc1C3=O [Valrubicin] (5000 nM) | 112%
Cc1ccc(-c2cc(C(F)(F)F)nn2-c2ccc(S(N)(=O)=O)cc2)cc1 [Celecoxib] (10000 nM) | 93%
Oc1ncc(N(CCCl)CCCl)c(O)n1 [Uracil mustard] (10000 nM) | 107%
C=CCc1cccc(/C=N/NC(=O)CN2CCN(Cc3ccccc3)CC2)c1O [PAC-1] (10000 nM) | 74.2%
COc1cc2c(NC3CCN(C(C)C)CC3)nc(C3CCCCC3)nc2cc1OCCCN1CCCC1 [UNC0638] (10000 nM) | -17.5%
C=CC(=O)Nc1cc2c(Nc3ccc(F)c(Cl)c3)ncnc2cc1OCCCN1CCOCC1 [Canertinib] (10000 nM) | 55.4%
C=CC(=O)N1CCC[C@@H](n2nc(-c3ccc(Oc4ccccc4)cc3)c3c(N)ncnc32)C1 [Ibrutinib] (1000 nM) | 83.8%
O=C(O)CCCCC(CCSCc1ccccc1)SCc1ccccc1 (centres undefined) [CPI-613] (10000 nM) | 94.8%
CCc1cncnc1N1CCN(Cc2nc3ccc(C(F)(F)F)cc3[nH]2)CC1 (10000 nM) | 93%

system: HDQ-P1; test: as above; conditions: incubation time: 72 h
In short: as §1

SMILES | normalised response
CCCCC(=O)OCC(=O)[C@]1(O)Cc2c(O)c3c(c(O)c2[C@@H](O[C@H]2C[C@H](NC(=O)C(F)(F)F)[C@H](O)[C@H](C)O2)C1)C(=O)c1c(OC)cccc1C3=O [Valrubicin] (5000 nM) | 134%
Cc1ccc(-c2cc(C(F)(F)F)nn2-c2ccc(S(N)(=O)=O)cc2)cc1 [Celecoxib] (10000 nM) | 105%
Oc1ncc(N(CCCl)CCCl)c(O)n1 [Uracil mustard] (10000 nM) | 83.4%
C=CCc1cccc(/C=N/NC(=O)CN2CCN(Cc3ccccc3)CC2)c1O [PAC-1] (10000 nM) | 113%
COc1cc2c(NC3CCN(C(C)C)CC3)nc(C3CCCCC3)nc2cc1OCCCN1CCCC1 [UNC0638] (10000 nM) | 58.6%
C=CC(=O)Nc1cc2c(Nc3ccc(F)c(Cl)c3)ncnc2cc1OCCCN1CCOCC1 [Canertinib] (10000 nM) | 37.8%
C=CC(=O)N1CCC[C@@H](n2nc(-c3ccc(Oc4ccccc4)cc3)c3c(N)ncnc32)C1 [Ibrutinib] (1000 nM) | 74.8%
O=C(O)CCCCC(CCSCc1ccccc1)SCc1ccccc1 (centres undefined) [CPI-613] (10000 nM) | 104%
CCc1cncnc1N1CCN(Cc2nc3ccc(C(F)(F)F)cc3[nH]2)CC1 (10000 nM) | 63.1%

system: MDA-MB-231; test: as above; conditions: incubation time: 72 h
In short: as §1

SMILES | normalised response
CCCCC(=O)OCC(=O)[C@]1(O)Cc2c(O)c3c(c(O)c2[C@@H](O[C@H]2C[C@H](NC(=O)C(F)(F)F)[C@H](O)[C@H](C)O2)C1)C(=O)c1c(OC)cccc1C3=O [Valrubicin] (5000 nM) | 205%
Cc1ccc(-c2cc(C(F)(F)F)nn2-c2ccc(S(N)(=O)=O)cc2)cc1 [Celecoxib] (10000 nM) | 104%
Oc1ncc(N(CCCl)CCCl)c(O)n1 [Uracil mustard] (10000 nM) | 101%
C=CCc1cccc(/C=N/NC(=O)CN2CCN(Cc3ccccc3)CC2)c1O [PAC-1] (10000 nM) | 86.4%
COc1cc2c(NC3CCN(C(C)C)CC3)nc(C3CCCCC3)nc2cc1OCCCN1CCCC1 [UNC0638] (10000 nM) | -58.7%
C=CC(=O)Nc1cc2c(Nc3ccc(F)c(Cl)c3)ncnc2cc1OCCCN1CCOCC1 [Canertinib] (10000 nM) | 13.5%
C=CC(=O)N1CCC[C@@H](n2nc(-c3ccc(Oc4ccccc4)cc3)c3c(N)ncnc32)C1 [Ibrutinib] (1000 nM) | 115%
O=C(O)CCCCC(CCSCc1ccccc1)SCc1ccccc1 (centres undefined) [CPI-613] (10000 nM) | 90.9%
CCc1cncnc1N1CCN(Cc2nc3ccc(C(F)(F)F)cc3[nH]2)CC1 (10000 nM) | 118%

system: CAL-120; test: as above; conditions: incubation time: 72 h
In short: as §1

SMILES | normalised response
CCCCC(=O)OCC(=O)[C@]1(O)Cc2c(O)c3c(c(O)c2[C@@H](O[C@H]2C[C@H](NC(=O)C(F)(F)F)[C@H](O)[C@H](C)O2)C1)C(=O)c1c(OC)cccc1C3=O [Valrubicin] (5000 nM) | 128%
Cc1ccc(-c2cc(C(F)(F)F)nn2-c2ccc(S(N)(=O)=O)cc2)cc1 [Celecoxib] (10000 nM) | 101%
Oc1ncc(N(CCCl)CCCl)c(O)n1 [Uracil mustard] (10000 nM) | 107%
C=CCc1cccc(/C=N/NC(=O)CN2CCN(Cc3ccccc3)CC2)c1O [PAC-1] (10000 nM) | 70.5%
COc1cc2c(NC3CCN(C(C)C)CC3)nc(C3CCCCC3)nc2cc1OCCCN1CCCC1 [UNC0638] (10000 nM) | -29.4%
C=CC(=O)Nc1cc2c(Nc3ccc(F)c(Cl)c3)ncnc2cc1OCCCN1CCOCC1 [Canertinib] (10000 nM) | 31%
C=CC(=O)N1CCC[C@@H](n2nc(-c3ccc(Oc4ccccc4)cc3)c3c(N)ncnc32)C1 [Ibrutinib] (1000 nM) | 102%
O=C(O)CCCCC(CCSCc1ccccc1)SCc1ccccc1 (centres undefined) [CPI-613] (10000 nM) | 98.6%
CCc1cncnc1N1CCN(Cc2nc3ccc(C(F)(F)F)cc3[nH]2)CC1 (10000 nM) | 99.6%

system: MDA-MB-468; test: as above; conditions: incubation time: 72 h
In short: as §1

SMILES | normalised response
CCCCC(=O)OCC(=O)[C@]1(O)Cc2c(O)c3c(c(O)c2[C@@H](O[C@H]2C[C@H](NC(=O)C(F)(F)F)[C@H](O)[C@H](C)O2)C1)C(=O)c1c(OC)cccc1C3=O [Valrubicin] (5000 nM) | 548%
Cc1ccc(-c2cc(C(F)(F)F)nn2-c2ccc(S(N)(=O)=O)cc2)cc1 [Celecoxib] (10000 nM) | 62.7%
Oc1ncc(N(CCCl)CCCl)c(O)n1 [Uracil mustard] (10000 nM) | 133%
C=CCc1cccc(/C=N/NC(=O)CN2CCN(Cc3ccccc3)CC2)c1O [PAC-1] (10000 nM) | 65.4%
COc1cc2c(NC3CCN(C(C)C)CC3)nc(C3CCCCC3)nc2cc1OCCCN1CCCC1 [UNC0638] (10000 nM) | -186%
C=CC(=O)Nc1cc2c(Nc3ccc(F)c(Cl)c3)ncnc2cc1OCCCN1CCOCC1 [Canertinib] (10000 nM) | -36.9%
C=CC(=O)N1CCC[C@@H](n2nc(-c3ccc(Oc4ccccc4)cc3)c3c(N)ncnc32)C1 [Ibrutinib] (1000 nM) | 75.1%
O=C(O)CCCCC(CCSCc1ccccc1)SCc1ccccc1 (centres undefined) [CPI-613] (10000 nM) | 131%
CCc1cncnc1N1CCN(Cc2nc3ccc(C(F)(F)F)cc3[nH]2)CC1 (10000 nM) | 103%

system: CAL-148; test: as above; conditions: incubation time: 72 h
In short: as §1

SMILES | normalised response
CCCCC(=O)OCC(=O)[C@]1(O)Cc2c(O)c3c(c(O)c2[C@@H](O[C@H]2C[C@H](NC(=O)C(F)(F)F)[C@H](O)[C@H](C)O2)C1)C(=O)c1c(OC)cccc1C3=O [Valrubicin] (5000 nM) | 119%
Cc1ccc(-c2cc(C(F)(F)F)nn2-c2ccc(S(N)(=O)=O)cc2)cc1 [Celecoxib] (10000 nM) | 101%
Oc1ncc(N(CCCl)CCCl)c(O)n1 [Uracil mustard] (10000 nM) | 104%
C=CCc1cccc(/C=N/NC(=O)CN2CCN(Cc3ccccc3)CC2)c1O [PAC-1] (10000 nM) | 61.4%
COc1cc2c(NC3CCN(C(C)C)CC3)nc(C3CCCCC3)nc2cc1OCCCN1CCCC1 [UNC0638] (10000 nM) | 2.74%
C=CC(=O)Nc1cc2c(Nc3ccc(F)c(Cl)c3)ncnc2cc1OCCCN1CCOCC1 [Canertinib] (10000 nM) | 65.4%
C=CC(=O)N1CCC[C@@H](n2nc(-c3ccc(Oc4ccccc4)cc3)c3c(N)ncnc32)C1 [Ibrutinib] (1000 nM) | 86.6%
O=C(O)CCCCC(CCSCc1ccccc1)SCc1ccccc1 (centres undefined) [CPI-613] (10000 nM) | 99.7%
CCc1cncnc1N1CCN(Cc2nc3ccc(C(F)(F)F)cc3[nH]2)CC1 (10000 nM) | 103%

system: MCF-10A; test: as above; conditions: incubation time: 72 h
In short: as §1

SMILES | normalised response
CCCCC(=O)OCC(=O)[C@]1(O)Cc2c(O)c3c(c(O)c2[C@@H](O[C@H]2C[C@H](NC(=O)C(F)(F)F)[C@H](O)[C@H](C)O2)C1)C(=O)c1c(OC)cccc1C3=O [Valrubicin] (5000 nM) | 157%
Cc1ccc(-c2cc(C(F)(F)F)nn2-c2ccc(S(N)(=O)=O)cc2)cc1 [Celecoxib] (10000 nM) | 82.2%
Oc1ncc(N(CCCl)CCCl)c(O)n1 [Uracil mustard] (10000 nM) | 123%
C=CCc1cccc(/C=N/NC(=O)CN2CCN(Cc3ccccc3)CC2)c1O [PAC-1] (10000 nM) | 99.2%
COc1cc2c(NC3CCN(C(C)C)CC3)nc(C3CCCCC3)nc2cc1OCCCN1CCCC1 [UNC0638] (10000 nM) | -76.4%
C=CC(=O)Nc1cc2c(Nc3ccc(F)c(Cl)c3)ncnc2cc1OCCCN1CCOCC1 [Canertinib] (10000 nM) | -28.8%
C=CC(=O)N1CCC[C@@H](n2nc(-c3ccc(Oc4ccccc4)cc3)c3c(N)ncnc32)C1 [Ibrutinib] (1000 nM) | 76.5%
O=C(O)CCCCC(CCSCc1ccccc1)SCc1ccccc1 (centres undefined) [CPI-613] (10000 nM) | 104%
CCc1cncnc1N1CCN(Cc2nc3ccc(C(F)(F)F)cc3[nH]2)CC1 (10000 nM) | 105%
